Measured values from article PMC3102704, “New Classes of Alanine Racemase Inhibitors Identified by High-Throughput Screening Show Antimicrobial Activity against Mycobacterium tuberculosis” (PLoS ONE, 2011).
Values after ≈ are worked out from the molar mass of the structure shown. Values joined by “and” are separate entries in the source; they are usually repeats but may differ in a detail not shown here. Equal entries are not always repeated. Where two headings read alike, the source gives them in different places.

Legend:
[1] = molecular target: T1, M. tuberculosis alanine racemase (Mycobacterium tuberculosis, UniProt P9WQA9); assay: biochemical; details: 30-minute pre-incubation with inhibitor, triplicate
T1 sequence (P9WQA9 whole entry): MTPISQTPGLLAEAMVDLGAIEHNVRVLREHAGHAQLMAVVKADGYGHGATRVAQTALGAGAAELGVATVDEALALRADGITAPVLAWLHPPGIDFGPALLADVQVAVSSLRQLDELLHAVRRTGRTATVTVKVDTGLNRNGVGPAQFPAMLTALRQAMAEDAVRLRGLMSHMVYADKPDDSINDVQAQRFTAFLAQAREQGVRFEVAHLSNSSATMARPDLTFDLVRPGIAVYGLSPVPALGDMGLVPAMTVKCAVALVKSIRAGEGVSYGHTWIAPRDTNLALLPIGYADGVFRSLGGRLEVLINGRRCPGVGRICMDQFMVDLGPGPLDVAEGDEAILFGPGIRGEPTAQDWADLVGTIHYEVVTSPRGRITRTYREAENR

[2] = test system: M. tuberculosis H37Rv; assay: Antimicrobial susceptibility in BACTEC MGIT 960 system; assay type: cell-based, Mycobacterium tuberculosis; details: for Mtb: antimicrobial activity against M. tuberculosis / Mtb: antimicrobial activity against M. tuberculosis (supplement table): M. tuberculosis H37Rv, BACTEC, 50 and 100 µg/ml; for Growth inhibition of M. tuberculosis H37Rv in BACTEC culture tubes: final concentration of 50 and 100 µg/ml
[3] = test system: M. tuberculosis H37Rv; assay: Microbroth dilution MIC determination; assay type: cell-based, Mycobacterium tuberculosis; details: for MIC: M. tuberculosis H37Rv, microbroth dilution, 21 days, read-out: MIC against M. tuberculosis
[4] = test system: HeLa cells; assay: Compound cytotoxicity, WST-1 Cell Proliferation Reagent; assay type: cell-based; details: for TC50, cytotoxicity in HeLa cells: 48 hours exposure, WST-1
Protocol: HeLa cells were grown to confluence overnight (37°C, 5% CO2) in Dulbecco's Modified Eagle Medium with 10% fetal bovine serum (Invitrogen, Carlsbad, CA). The following day, 3000 cells were plated into each well of a 96-well plate and grown overnight. Compounds were diluted in culture medium and added to the cells to yield final concentrations of 100, 50, 25, 12.5, and 6.25 µg/ml. The cells were exposed to the compounds for 48 hours, after which the effect on cells was determined using the WST-1 Cell Proliferation Reagent (Roche Applied Science, Indianapolis, IN) according to manufacturer's protocols. Absorbance at 450 nm was used to calculate percent cytotoxicity with respect to a DMSO solvent control. The results were fitted onto a sigmoidal dose-response curve using Prism software to calculate the TC50 (compound concentration that causes 50% cell death).

[5] = molecular target: T1, M. tuberculosis alanine racemase; assay: biochemical; assay type: biochemical; details: D-alanine 0.5-2.5 mM, inhibitor 0.01 to 0.98 mM
[6] = molecular target: T1, M. tuberculosis alanine racemase; assay type: binding; details: 4 µM alanine racemase with 1 mM inhibitor
Protocol: Electrospray ionization mass spectrometry (ESMS) was performed to detect direct interactions of inhibitors with enzyme. A mixture of 15 µl of sample (4 µM alanine racemase with 1 mM inhibitors) was diluted with 15 µl 2% acetonitrile/0.1% formic acid. Samples were then de-salted using C4 ZipTip, eluted into 15 µl 60% acetonitrile/0.1% formic acid, and directly injected into Qtof-micro MS instrument (Waters Corp., Milford, MA).

[7] = Mycobacterium tuberculosis, 504 h

Molecule	IC50 [1] [µM]	Mtb: antimicrobial activity against M. tuberculosis [2]	Mtb: antimicrobial activity against M. tuberculosis (supplement table) [2]	Growth inhibition of M. tuberculosis H37Rv in BACTEC culture tubes [2]	MIC [3, 7]	TC50, cytotoxicity in HeLa cells [4] [µM]	Ki [5] [µM]	Nature of inhibitor-enzyme interaction by ESMS [6]	Increase in the MIC in the presence of D-alanine ([3]; 5 mM D-alanine in the growth medium, data not shown) [fold]	Cytotoxicity relative to MIC ([4]; compared with MIC against M. tuberculosis)	MIC [3] [µM]
COc1ccc(NC(=O)c2nc(S(C)(=O)=O)ncc2Cl)cc1Cl [L2-06, 5-chloro-N-(3-chloro-4-methoxyphenyl)2(methylsulfonyl)pyrimidine-4carboxamide]	8.2	+	+	inhibited growth at both concentrations	< 4.5 µM	18.8	760	irreversible			
O=C(O)CSC(=S)Nc1cccnc1 [L2-11, 2-(pyridin-3-ylcarbamothioylsulfanyl)acetic acid]	13.1	−	-								
N[C@@H]1CONC1=O [CS, (4R)-4-amino-3-isoxazolidinone, reference compound]		+	+		6.5 µg/mL and 65 µM	203		irreversible modification of the enzyme	3		
Cc1ccc(S(=O)(=O)NN(C)C)cc1 [L2-01, N′,N′,4-trimethylbenzenesulfonohydrazide]	9	−	-								
O=C1Nc2ccccc2C(=O)C1(O)O [L2-16, 3,3-dihydroxy-1H-quinoline-2,4-dione]	5.2	+	+	inhibited growth at both concentrations	32.4 µM (≈ 6.26 µg/mL)	33.7	20	reversible		cytotoxic at slightly above its MIC	
CCOC(=O)CCSc1ccccn1 [L2-04, ethyl 3-(pyridin-2-ylthio)propanoate]	2.6	+	+	inhibited growth at both concentrations	59 µM (≈ 12.5 µg/mL)	229.8	38	reversible			
CS(=O)(=O)c1ncc(Cl)c(C(=O)NCc2ccccc2)n1 [L2-05, N-benzyl-5-chloro-2-methylsulfonylpyrimidine-4-carboxamide]	6.8	+	+	inhibited growth at both concentrations	9 µM (≈ 2.93 µg/mL)	20	630	irreversible			
COc1ccc(CC(=S)N2CCOCC2)cc1 [L2-09, 2-(4-methoxyphenyl)-1-morpholin-4-ylethanethione]	3.3	−	-								
2-(hydoxyimino)-6-methyl-2H-benzopyran-3-carboxamide [L2-14]	2.8	−	-								
CNC(=O)COc1ccccc1O [L2-15, 2-(2-hydroxyphenoxy)-N-methylacetamide]	5.7	−	-								
CCOc1ccc(CCNC(=O)Cn2sc3nc(C)cc(C)c3c2=O)cc1 [L2-13, 2-(4,6-dimethyl-3-oxo-[1], [2]thiazolo[5,4-b]pyridin-2-yl)-N-[2-(4-ethoxyphenyl)ethyl]acetamide]	7.7	+	+	inhibited growth at both concentrations		36.4	930	irreversible			16.2 (≈ 6.24 µg/mL)
Cc1ccc(CC(=S)N2CCOCC2)cc1 [L2-07, 2-(4-methylphenyl)-1-morpholin-4-ylethanethione]	6.5	−	-								
S=C(Cc1ccccc1)N1CCCCC1 [L2-12, 2-phenyl-1-piperidin-1-ylethanethione]	6	+	+	inhibited growth at both concentrations	28.6 µM (≈ 6.27 µg/mL)	406	80	irreversible			
O=C(COc1ccccc1O)NO [L2-03, N-hydroxy-2-(2-hydroxyphenoxy)acetamide]	8.2	−	-								
COC(=O)c1cccc(C(=O)Oc2ccc(OC(=O)c3cccc(C(=O)OC)n3)c(Cl)c2)n1 [L2-10, 6-O-[3-chloro-4-(6-methoxycarbonylpyridine-2-carbonyl)oxyphenyl]2-O-methyl pyridine-2,6-dicarboxylate]	1	+	+	inhibited growth at both concentrations		157.2	680	not definitive			13.6 (≈ 6.4 µg/mL)
CN(C)NS(=O)(=O)c1ccc2c(c1)Cc1cc(S(=O)(=O)NN(C)C)ccc1-2 [L2-02, 2-N′,2-N′,7-N′,7-N′-tetramethyl-9H-fluorene-2,7-disulfonohydrazide]	1.6	−	-								
O=C(c1cccs1)c1no[n+]([O-])c1C(=O)c1cccs1 [L2-18, 1,1′-(2-oxido-1,2,5-oxadiazole-3,4-diyl)-bis (1-(2-thienyl))-methanone]	4.9	−	-								
